According to ChEMBL document CHEMBL1201862, “PubChem BioAssay data set” (2004):
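A five-concentration, 48-hour dose response in 96-well plates underlies each endpoint, interpolated linearly between surrounding concentrations. The concentration for 50% growth inhibition is given as GI50.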 Activity calls are given as the source filed them. No stated cut-off is given here; in the data, active = GI50 up to about 1.1 µM and inactive = higher.

What was measured:
Assay in all cases: growth of human tumour cells (NCI), 48 h
BT-549 = tested on: BT-549
HOP-62 = tested on: HOP-62
LOX IMVI = tested on: LOX IMVI
SK-MEL-28 = tested on: SK-MEL-28
DU-145 = tested on: DU-145
MCF7 = tested on: MCF7
SK-MEL-5 = tested on: SK-MEL-5
SK-OV-3 = tested on: SK-OV-3
CAKI-1 = tested on: CAKI-1
NCI-H460 = tested on: NCI-H460
PC-3 = tested on: PC-3
SW-620 = tested on: SW-620
MDA-MB-231 = tested on: MDA-MB-231
NCI-H23 = tested on: NCI-H23
786-0 = tested on: 786-0
NCI/ADR-RES = tested on: NCI/ADR-RES
SNB-19 = tested on: SNB-19
UO-31 = tested on: UO-31
M14 = tested on: M14
SR = tested on: SR

Measured: GI50

O=C1CC2(CCN(Cc3ccccc3)CC2)C(=O)N1N1CCCCC1
inactive: BT-549 > 100 µM | HOP-62 > 100 µM | LOX IMVI > 100 µM | SK-MEL-28 > 100 µM | DU-145 > 100 µM | MCF7 > 100 µM | SK-MEL-5 > 100 µM | SK-OV-3 > 100 µM | CAKI-1 > 100 µM | NCI-H460 > 100 µM | PC-3 > 100 µM | SW-620 > 100 µM | MDA-MB-231 > 100 µM | NCI-H23 > 100 µM | 786-0 > 100 µM | NCI/ADR-RES > 100 µM | SNB-19 > 100 µM | UO-31 > 100 µM | M14 > 100 µM

O=S1(=O)N=C(NCc2c[nH]c3ccccc23)N(c2ccccc2)c2ccncc21
inactive: BT-549 55.1 µM | HOP-62 30 µM | LOX IMVI > 100 µM | SK-MEL-28 > 100 µM | DU-145 > 100 µM | MCF7 > 100 µM | SK-MEL-5 > 100 µM | SK-OV-3 40.2 µM | CAKI-1 > 100 µM | NCI-H460 > 100 µM | PC-3 > 100 µM | SW-620 > 100 µM | MDA-MB-231 > 100 µM | NCI-H23 > 100 µM | 786-0 53.3 µM | NCI/ADR-RES > 100 µM | SNB-19 34.9 µM | UO-31 5.25 µM | M14 > 100 µM

COc1ccc(C(=O)Cn2c(C(=O)/C=C/c3ccco3)nc3ccccc32)cc1
inactive: BT-549 34.4 µM | HOP-62 46 µM | LOX IMVI 25.8 µM | SK-MEL-28 42.2 µM | DU-145 38.5 µM | MCF7 19.4 µM | SK-MEL-5 26.7 µM | SK-OV-3 37.3 µM | NCI-H460 23.5 µM | PC-3 36.3 µM | SW-620 31.4 µM | MDA-MB-231 28.7 µM | NCI-H23 42.4 µM | 786-0 31 µM | NCI/ADR-RES 25.9 µM | SNB-19 39.2 µM | UO-31 31.6 µM | SR 10 µM | M14 36.6 µM

O=c1c(C(c2ccc3ccccc3c2)c2c(O)oc3ccccc3c2=O)c(O)oc2ccccc12
inactive: BT-549 24.8 µM | HOP-62 39.3 µM | LOX IMVI 34.6 µM | SK-MEL-28 28.6 µM | DU-145 40.7 µM | MCF7 37.1 µM | SK-MEL-5 22.6 µM | SK-OV-3 50.9 µM | CAKI-1 22.9 µM | NCI-H460 27.7 µM | PC-3 34.6 µM | SW-620 31.9 µM | MDA-MB-231 22.6 µM | NCI-H23 23.2 µM | 786-0 25.6 µM | NCI/ADR-RES 17.9 µM | SNB-19 46.3 µM | UO-31 17 µM | M14 25.9 µM

CC(=O)NC(CCC(=O)C=[N+]=[N-])C(=O)O (configuration not stated)
inactive: BT-549 > 100 µM | HOP-62 > 100 µM | LOX IMVI > 100 µM | SK-MEL-28 > 100 µM | DU-145 > 100 µM | MCF7 > 100 µM | SK-MEL-5 > 100 µM | SK-OV-3 > 100 µM | NCI-H460 > 100 µM | PC-3 > 100 µM | SW-620 > 100 µM | MDA-MB-231 > 100 µM | NCI-H23 > 100 µM | 786-0 > 100 µM | NCI/ADR-RES > 100 µM | SNB-19 > 100 µM | UO-31 > 100 µM | SR > 100 µM | M14 > 100 µM

CN1C/C(=C\c2cccs2)C(=O)/C(=C/c2cccs2)C1
inactive: BT-549 21.4 µM | HOP-62 33 µM | LOX IMVI 16.3 µM | SK-MEL-28 52.2 µM | DU-145 28.6 µM | MCF7 15.7 µM | SK-MEL-5 38.5 µM | SK-OV-3 33.2 µM | CAKI-1 31.1 µM | NCI-H460 24.3 µM | PC-3 19.2 µM | SW-620 40.7 µM | MDA-MB-231 18.3 µM | NCI-H23 31.2 µM | 786-0 17.7 µM | NCI/ADR-RES 22.1 µM | SNB-19 30.5 µM | UO-31 18.7 µM | M14 21.1 µM

C1CSC[C@H]2COC[C@@H](CSCCS1)S2
inactive: BT-549 > 100 µM | HOP-62 > 100 µM | LOX IMVI > 100 µM | SK-MEL-28 > 100 µM | DU-145 > 100 µM | MCF7 > 100 µM | SK-MEL-5 > 100 µM | NCI-H460 > 100 µM | PC-3 > 100 µM | SW-620 > 100 µM | MDA-MB-231 > 100 µM | NCI-H23 > 100 µM | 786-0 > 100 µM | NCI/ADR-RES > 100 µM | SNB-19 > 100 µM | UO-31 > 100 µM | SR > 100 µM | M14 > 100 µM

C#C[C@]1(O)CC[C@H]2[C@@H]3CCC4=C/C(=N/CCOC(=O)c5cccc6c(=O)c7ccccc7[nH]c56)CC[C@@H]4[C@H]3CC[C@@]21C
inactive: BT-549 32.3 µM | HOP-62 37.2 µM | LOX IMVI 28.3 µM | SK-MEL-28 47.6 µM | DU-145 32.4 µM | MCF7 26.1 µM | SK-MEL-5 28 µM | SK-OV-3 51.5 µM | CAKI-1 51.3 µM | NCI-H460 32.7 µM | PC-3 18.4 µM | SW-620 45.2 µM | MDA-MB-231 15.7 µM | NCI-H23 32.7 µM | 786-0 42.4 µM | NCI/ADR-RES 40.9 µM | SNB-19 90.2 µM | UO-31 37.8 µM | M14 41.7 µM

CCC1(CC)CC(=NNS(=O)(=O)c2ccc(C)cc2)C1
inactive: BT-549 > 100 µM | LOX IMVI > 100 µM | SK-MEL-28 > 100 µM | DU-145 > 100 µM | MCF7 > 100 µM | SK-MEL-5 > 100 µM | SK-OV-3 > 100 µM | CAKI-1 > 100 µM | NCI-H460 > 100 µM | PC-3 > 100 µM | SW-620 > 100 µM | MDA-MB-231 > 100 µM | NCI-H23 > 100 µM | 786-0 > 100 µM | NCI/ADR-RES > 100 µM | SNB-19 > 100 µM | UO-31 > 100 µM | M14 > 100 µM

CCCCCCCCCCCCC(O)C(=O)O (configuration not stated)
inactive: BT-549 > 100 µM | HOP-62 > 100 µM | LOX IMVI > 100 µM | DU-145 > 100 µM | MCF7 > 100 µM | SK-MEL-5 > 100 µM | SK-OV-3 > 100 µM | CAKI-1 > 100 µM | NCI-H460 > 100 µM | PC-3 > 100 µM | SW-620 > 100 µM | MDA-MB-231 > 100 µM | NCI-H23 > 100 µM | 786-0 > 100 µM | NCI/ADR-RES > 100 µM | SNB-19 > 100 µM | UO-31 > 100 µM | M14 > 100 µM
